Measured values from PMC12133000 (PLOS One, 2025).
Values joined by “and” are separate entries in the source; they are usually repeats but may differ in a detail not shown here. Equal values may be shown once. Read-outs that look alike come from different tables or passages of the source.

Assay: Pharmacokinetics of rivaroxaban in rats after avitinib or gefitinib pretreatment
Format: in vivo, Sprague–Dawley (SD) rats
Settings: for AUC(0-inf) / Tmax / AUC(0-t) / CL/F / Cmax / MRT last / half-life / k el / MRT inf / Vd/F: po, 10 mg/kg; for CL/F: read-out: CLz/F (converted); for Cmax: read-out: Cmax; for k el: read-out: λz (converted); for Vd/F: read-out: Vz/F
Experimental: Eighteen male Sprague–Dawley (SD) rats weighing 300 ± 20 g were provided by the Experimental Animal Center of Wenzhou Medical University (Wenzhou, China) and kept under controlled conditions at a temperature of 23 ± 2 °C, relative humidity of 50 ± 10%, and 12 h light–dark cycle. Eighteen male SD rats were randomly assigned to three groups: avitinib, gefitinib, and control, with six rats per group. Prior to the experiment, the rats were not administered any other medications and fasted for 12 h. The experimental procedures and protocols adhered to Animal Ethics standards and were approved by the Animal Care and Use Committee of Wenzhou Medical University (approval no. wydw2019–650). All rats were anesthetized with sodium pentobarbital (40mg/kg, i.p) to relieve pain. The rats were killed through cervical dislocation.
Prior to the experiment in vivo, the six rats in the avitinib group were administered 30 mg/kg avitinib and 0.5% sodium carboxymethyl cellulose (CMC-Na) solution by gavage daily for 7 d. […] The supernatant was collected and stored at −80 °C. After thawing, 50 μL of plasma was extracted; 100 μL of acetonitrile solution containing midazolam (200 ng/mL) was then added to induce protein precipitation. After vortexing for 30 s and centrifuging at 13,000 rpm for 5 min, the […].
All assays were performed in triplicate, and the results are expressed as mean ± standard deviation. DAS software v. […] SPSS v. 25.0 (IBM, NY, USA) was used for data processing. Student’s t-tests were used to detect differences between groups. Differences with p < 0.05 were considered statistically significant.

[1] = male, Sprague-Dawley, rat, plasma, avitinib group, Mean
[2] = male, Sprague-Dawley, rat, plasma, gefitinib group, Mean
[3] = male, Sprague-Dawley, rat, plasma, gefitinib group, single rats No1-No6
[4] = male, Sprague-Dawley, rat, plasma, rats, rivaroxaban 10 mg/kg oral, avitinib group (30 mg/kg pretreatment)
[5] = male, Sprague-Dawley, rat, plasma, rats, rivaroxaban 10 mg/kg oral, control group (CMC-Na only)
[6] = male, Sprague-Dawley, rat, plasma, rats, rivaroxaban 10 mg/kg oral, gefitinib group (25 mg/kg pretreatment)

O=C(NC[C@H]1CN(c2ccc(N3CCOCC3=O)cc2)C(=O)O1)c1ccc(Cl)s1 [rivaroxaban, Rivaroxaban]
concentration at 12 h (male, Sprague-Dawley, rat, plasma, oral, rivaroxaban ng/ml mean, 吉非替尼 (gefitinib) group, mean of rats 7-12, time 12): 1640 ng/mL
concentration at 24 h (male, Sprague-Dawley, rat, plasma, oral, rivaroxaban ng/ml mean, 艾维替尼 (avitinib) group, mean (one rat only), time 24): 14.8 ng/mL
concentration at 5 min (male, Sprague-Dawley, rat, plasma, oral, rivaroxaban ng/ml mean, 艾维替尼 (avitinib) group, mean of rats 1-6, time 0.0833): 284 ng/mL
concentration at 0.25 h (male, Sprague-Dawley, rat, plasma, oral, rivaroxaban ng/ml mean, 艾维替尼 (avitinib) group, mean of rats 1-6, time 0.25): 588 ng/mL
concentration at 0.5 h (male, Sprague-Dawley, rat, plasma, oral, rivaroxaban ng/ml mean, 艾维替尼 (avitinib) group, mean of rats 1-6, time 0.5): 1090 ng/mL
concentration at 1 h (male, Sprague-Dawley, rat, plasma, oral, rivaroxaban ng/ml mean, 艾维替尼 (avitinib) group, mean of rats 1-6, time 1): 1730 ng/mL
concentration at 2 h (male, Sprague-Dawley, rat, plasma, oral, rivaroxaban ng/ml mean, 艾维替尼 (avitinib) group, mean of rats 1-6, time 2): 1650 ng/mL
concentration at 3 h (male, Sprague-Dawley, rat, plasma, oral, rivaroxaban ng/ml mean, 艾维替尼 (avitinib) group, mean of rats 1-6, time 3): 1390 ng/mL
concentration at 4 h (male, Sprague-Dawley, rat, plasma, oral, rivaroxaban ng/ml mean, 艾维替尼 (avitinib) group, mean of rats 1-6, time 4): 1010 ng/mL
concentration at 6 h (male, Sprague-Dawley, rat, plasma, oral, rivaroxaban ng/ml mean, 艾维替尼 (avitinib) group, mean of rats 1-6, time 6): 538 ng/mL
concentration at 8 h (male, Sprague-Dawley, rat, plasma, oral, rivaroxaban ng/ml mean, 艾维替尼 (avitinib) group, mean of rats 1-6, time 8): 448 ng/mL
concentration at 12 h (male, Sprague-Dawley, rat, plasma, oral, rivaroxaban ng/ml mean, 艾维替尼 (avitinib) group, mean of rats 1-6, time 12): 80.9 ng/mL
concentration at 0.25 h (male, Sprague-Dawley, rat, plasma, oral, rivaroxaban ng/ml, 吉非替尼 (gefitinib) group, individual rats 7-12, time 0.25): 1690 ng/mL
concentration at 0.5 h (male, Sprague-Dawley, rat, plasma, oral, rivaroxaban ng/ml, 吉非替尼 (gefitinib) group, individual rats 7-12, time 0.5): 3820 ng/mL
concentration at 1 h (male, Sprague-Dawley, rat, plasma, oral, rivaroxaban ng/ml, 吉非替尼 (gefitinib) group, individual rats 7-12, time 1): 5910 ng/mL
concentration at 3 h (male, Sprague-Dawley, rat, plasma, oral, rivaroxaban ng/ml, 吉非替尼 (gefitinib) group, individual rats 7-12, time 3): 9510 ng/mL
concentration at 4 h (male, Sprague-Dawley, rat, plasma, oral, rivaroxaban ng/ml, 吉非替尼 (gefitinib) group, individual rats 7-12, time 4): 11300 ng/mL
concentration at 6 h (male, Sprague-Dawley, rat, plasma, oral, rivaroxaban ng/ml, 吉非替尼 (gefitinib) group, individual rats 7-12, time 6): 3980 ng/mL
concentration at 8 h (male, Sprague-Dawley, rat, plasma, oral, rivaroxaban ng/ml, 吉非替尼 (gefitinib) group, individual rats 7-12, time 8): 3270 ng/mL
concentration at 5 min (male, Sprague-Dawley, rat, plasma, oral, rivaroxaban ng/ml, 艾维替尼 (avitinib) group, individual rats 1-6, time 0.0833): 237 ng/mL
concentration at 24 h (male, Sprague-Dawley, rat, plasma, oral, rivaroxaban ng/ml, 艾维替尼 (avitinib) group, individual rats 1-6, time 24): 14.8 ng/mL
AUC(0-inf) [1]: 9350 ng·h/mL
Tmax [1]: 1.33 h
AUC(0-t) (male, Sprague-Dawley, rat, plasma, avitinib group, Mean, read-out: AUC(0-t)): 9000 ng·h/mL
CL/F [1]: 19.7 mL/min/kg
Cmax [1]: 1810 ng/mL
MRT last (male, Sprague-Dawley, rat, plasma, avitinib group, Mean, read-out: MRT(0-t)): 3.79 h
half-life (male, Sprague-Dawley, rat, plasma, avitinib group, Mean, read-out: t1/2z (converted)): 2.2 h
k el [1]: 0.000104 s⁻¹
Tmax (male, Sprague-Dawley, rat, plasma, avitinib group, single rats No1-No6): 1 h
MRT last (male, Sprague-Dawley, rat, plasma, avitinib group, single rats No1-No6, read-out: MRT(0-t)): 3.83 h
MRT inf (male, Sprague-Dawley, rat, plasma, avitinib group, single rats No1-No6, read-out: MRT(0-∞)): 2.87 h
AUC(0-inf) [2]: 76000 ng·h/mL
Tmax [2]: 3.17 h
AUC(0-t) (male, Sprague-Dawley, rat, plasma, gefitinib group, Mean, read-out: AUC(0-t)): 58000 ng·h/mL
CL/F [2]: 2.32 mL/min/kg
Cmax [2]: 8310 ng/mL
MRT last (male, Sprague-Dawley, rat, plasma, gefitinib group, Mean, read-out: MRT(0-t)): 4.9 h
MRT inf (male, Sprague-Dawley, rat, plasma, gefitinib group, Mean, read-out: MRT(0-∞)): 8.23 h
Vd/F [2]: 0.867 L/kg
half-life (male, Sprague-Dawley, rat, plasma, gefitinib group, Mean, read-out: t1/2z (converted)): 4.81 h
k el [2]: 5.17e-05 s⁻¹
AUC(0-inf) [3]: 109000 ng·h/mL
AUC(0-t) (male, Sprague-Dawley, rat, plasma, gefitinib group, single rats No1-No6, read-out: AUC(0-t)): 62400 ng·h/mL
CL/F [3]: 1.53 mL/min/kg
Cmax [3]: 6780 ng/mL
MRT last (male, Sprague-Dawley, rat, plasma, gefitinib group, single rats No1-No6, read-out: MRT(0-t)): 5.59 h
AUC(0-inf) [4]: 9350 ± 3840 ng·h/mL
Tmax [4]: 1.33 ± 0.82 h
AUC(0-t) (male, Sprague-Dawley, rat, plasma, rats, rivaroxaban 10 mg/kg oral, avitinib group (30 mg/kg pretreatment), read-out: AUC(0–t)): 9000 ± 3740 ng·h/mL
CL/F [4]: 19.7 mL/min/kg
Cmax [4]: 1810 ± 619 ng/mL
MRT last (male, Sprague-Dawley, rat, plasma, rats, rivaroxaban 10 mg/kg oral, avitinib group (30 mg/kg pretreatment), read-out: MRT(0–t)): 3.79 ± 0.66 h
half-life (male, Sprague-Dawley, rat, plasma, rats, rivaroxaban 10 mg/kg oral, avitinib group (30 mg/kg pretreatment), read-out: t1/2 (converted)): 2.2 ± 1.07 h
AUC(0-inf) [5]: 2280 ± 870 ng·h/mL
Tmax [5]: 0.83 ± 0.26 h
AUC(0-t) (male, Sprague-Dawley, rat, plasma, rats, rivaroxaban 10 mg/kg oral, control group (CMC-Na only), read-out: AUC(0–t)): 2250 ± 853 ng·h/mL
CL/F [5]: 80.8 mL/min/kg
Cmax [5]: 441 ± 81.8 ng/mL
MRT last (male, Sprague-Dawley, rat, plasma, rats, rivaroxaban 10 mg/kg oral, control group (CMC-Na only), read-out: MRT(0–t)): 3.79 ± 1.08 h
MRT inf (male, Sprague-Dawley, rat, plasma, rats, rivaroxaban 10 mg/kg oral, control group (CMC-Na only), read-out: MRT(0–∞)): 3.95 ± 1.05 h
Vd/F [5]: 11.5 ± 2.63 L/kg
half-life (male, Sprague-Dawley, rat, plasma, rats, rivaroxaban 10 mg/kg oral, control group (CMC-Na only), read-out: t1/2 (converted)): 1.61 ± 0.61 h
AUC(0-inf) [6]: 76000 ± 20800 ng·h/mL
Tmax [6]: 3.17 ± 0.98 h
AUC(0-t) (male, Sprague-Dawley, rat, plasma, rats, rivaroxaban 10 mg/kg oral, gefitinib group (25 mg/kg pretreatment), read-out: AUC(0–t)): 58000 ± 5890 ng·h/mL
CL/F [6]: 2.33 mL/min/kg
Cmax [6]: 8310 ± 2100 ng/mL
MRT last (male, Sprague-Dawley, rat, plasma, rats, rivaroxaban 10 mg/kg oral, gefitinib group (25 mg/kg pretreatment), read-out: MRT(0–t)): 4.9 ± 0.47 h
MRT inf (male, Sprague-Dawley, rat, plasma, rats, rivaroxaban 10 mg/kg oral, gefitinib group (25 mg/kg pretreatment), read-out: MRT(0–∞)): 8.23 ± 3.61 h
Vd/F [6]: 0.87 ± 0.28 L/kg
half-life (male, Sprague-Dawley, rat, plasma, rats, rivaroxaban 10 mg/kg oral, gefitinib group (25 mg/kg pretreatment), read-out: t1/2 (converted)): 4.81 ± 2.7 h
MRT(0–∞) (rats, rivaroxaban 10 mg/kg oral, avitinib group (30 mg/kg pretreatment)): 4.26 ± 1.12 h
rivaroxaban (吉非替尼 (gefitinib) group, individual rats 7-12, time 0.0833): 778.8 ng/mL and 334.9 ng/mL and 724.5 ng/mL and 847.1 ng/mL and 256.3 ng/mL and 816.3 ng/mL
rivaroxaban (吉非替尼 (gefitinib) group, individual rats 7-12, time 0.25): 1686.1 ng/mL and 1476.8 ng/mL and 2176.1 ng/mL and 1686 ng/mL and 1747.2 ng/mL
rivaroxaban (吉非替尼 (gefitinib) group, individual rats 7-12, time 0.5): 3330.8 ng/mL and 4408.9 ng/mL and 4082.8 ng/mL and 3161.2 ng/mL and 3240.3 ng/mL
rivaroxaban (吉非替尼 (gefitinib) group, individual rats 7-12, time 1): 5012 ng/mL and 6707.2 ng/mL and 5280.7 ng/mL and 6110.2 ng/mL and 4481.1 ng/mL
rivaroxaban (吉非替尼 (gefitinib) group, individual rats 7-12, time 2): 8309.8 ng/mL and 7015.4 ng/mL and 10641.7 ng/mL and 6946 ng/mL
rivaroxaban (吉非替尼 (gefitinib) group, individual rats 7-12, time 3): 6431.9 ng/mL and 10386.8 ng/mL and 7734.1 ng/mL
rivaroxaban (吉非替尼 (gefitinib) group, individual rats 7-12, time 4): 6136.6 ng/mL and 9214.1 ng/mL and 6949.9 ng/mL
rivaroxaban (吉非替尼 (gefitinib) group, individual rats 7-12, time 6): 6115 ng/mL and 5681 ng/mL and 5825.4 ng/mL
rivaroxaban (吉非替尼 (gefitinib) group, individual rats 7-12, time 8): 3374.5 ng/mL and 2542.2 ng/mL and 4779.1 ng/mL
rivaroxaban (吉非替尼 (gefitinib) group, individual rats 7-12, time 12): 732.7 ng/mL and 1716.7 ng/mL and 1654.8 ng/mL and 917.3 ng/mL
rivaroxaban (对照 (control, rivaroxaban alone) group, individual rats 13-18, time 0.0833): 278.3 ng/mL and 142.7 ng/mL and 136.5 ng/mL and 68.9 ng/mL and 158.6 ng/mL and 163.2 ng/mL
rivaroxaban (对照 (control, rivaroxaban alone) group, individual rats 13-18, time 0.25): 264.9 ng/mL and 294.2 ng/mL and 171.8 ng/mL and 256.9 ng/mL and 261.1 ng/mL
rivaroxaban (对照 (control, rivaroxaban alone) group, individual rats 13-18, time 0.5): 465.3 ng/mL and 337.5 ng/mL and 461.6 ng/mL and 378.7 ng/mL and 305.8 ng/mL
rivaroxaban (对照 (control, rivaroxaban alone) group, individual rats 13-18, time 2): 261.4 ng/ml (2×) and 475.9 ng/ml and 181.6 ng/ml and 351.5 ng/ml and 418.6 ng/ml and 334.6 ng/ml
rivaroxaban (对照 (control, rivaroxaban alone) group, individual rats 13-18, time 3): 240.8 ng/mL and 431.8 ng/mL and 207.2 ng/mL and 349.6 ng/mL
rivaroxaban (艾维替尼 (avitinib) group, individual rats 1-6, time 0.0833): 380.2 ng/mL and 320.6 ng/mL and 287.7 ng/mL and 191 ng/mL and 288.9 ng/mL and 237.4 ng/mL
rivaroxaban (艾维替尼 (avitinib) group, individual rats 1-6, time 0.25): 386.7 ng/ml (2×) and 727.9 ng/ml and 581.8 ng/ml and 614.9 ng/ml and 286.3 ng/ml and 927.5 ng/ml
rivaroxaban (艾维替尼 (avitinib) group, individual rats 1-6, time 0.5): 990.9 ng/ml (2×) and 1066.3 ng/ml and 1018.5 ng/ml and 978.4 ng/ml and 583.2 ng/ml and 1904.4 ng/ml
rivaroxaban (艾维替尼 (avitinib) group, individual rats 1-6, time 1): 1423.2 ng/ml (2×) and 1593.7 ng/ml and 2386.3 ng/ml and 1162.7 ng/ml and 1561.2 ng/ml and 2231.2 ng/ml
